Experimental data from patent US9181234B2, “Antibacterial compounds” (priority 2010, dated 2015).
≈ marks a conversion by molar mass, not a printed value.

Legend:
[1] = test system: Streptococcus pyogenes (Isolate ID ATCC 51339); test: Antibacterial activity, MIC, S. pyogenes; assay type: cell-based; conditions: broth microdilution or agar dilution; for MIC: Streptococcus pyogenes, ATCC51339, Gram positive strain
Procedure: (§1) Bacterial Assay: Determination of Antibacterial Activity
(§2) Compounds of the invention were tested for antimicrobial activity by susceptibility testing in liquid or on solid media. MICs for compounds against each strain were determined by the broth microdilution or agar dilution method according to the guidelines of the Clinical Laboratories and Standards Institute, formerly the National Committee for Clinical Laboratory Standards (Clinical Laboratories and Standards Institute. Methods for Dilution Antimicrobial Susceptibility Tests for Bacteria That Grow Aerobically; Approved Standard—Seventh Edition. Document M7-A7. CLSI, Wayne, Pa., 2006; Clinical Laboratories and Standards Institute. The gram positive bacterial strains tested include S. aureus (Staphylococcus aureus (Isolate ID ATCC 29213)), E. faecalis (Enterococcus faecalis (Isolate ID ATCC 29212)) and S. pyogenes (Streptococcus pyogenes (Isolate ID ATCC 51339)). The gram negative bacterial strains tested include H. influenzae (Haemophilus influenzae (Isolate ID ATCC 49247))

[2] = test system: Staphylococcus aureus (Isolate ID ATCC 29213); test: Antibacterial activity, MIC, S. aureus; assay type: cell-based; conditions: broth microdilution or agar dilution; for MIC: Staphylococcus aureus, ATCC29213, Gram positive strain
Procedure: as §1, §2

[3] = test system: Haemophilus influenzae (Isolate ID ATCC 49247); test: Antibacterial activity, MIC, H. influenzae; assay type: cell-based; conditions: Gram negative strain, broth microdilution or agar dilution; for MIC: Haemophilus influenzae, ATCC49247
Procedure: as §1, §2

[4] = test system: Enterococcus faecalis (Isolate ID ATCC 29212); test: Antibacterial activity, MIC, E. faecalis; assay type: cell-based; conditions: Enterococcus faecalis, ATCC29212; Gram positive strain; broth microdilution or agar dilution
Procedure: as §1, §2

physchem = conditions: for solubility at 24 h: kinetic from dmso stock
Procedure: Turbimetric Assay: Determination of Solubility
The solubility of the compounds was measured using a turbidimetric method. A series of doubling dilutions of compounds were prepared in neat dimethyl sulfoxide (DMSO). 5 μl samples were diluted twenty-fold into 95 μl volumes of 100 mM citrate buffer (pH 4), phosphate buffered saline (PBS, pH 7.4) or carbonate-bicarbonate buffer (pH 9) in microtitre assay plates and allowed to reach equilibrium at room temperature for 24 hours. The absorbance within each well of the plate was read spectrophotometrically at a wavelength of 620 nm. A precipitate forms when the maximum aqueous solubility level is reached. The value quoted is the highest concentration where the compound was in solution i.e. where no measurable precipitate was present. […] ND=not determined

[5] = pH 7.4, aqueous buffer, Solubility (pH 7.4)
[6] = pH 7.4, aqueous buffer, Solubility Range
[7] = pH 9, aqueous buffer, Max Solubility
[8] = pH 9, aqueous buffer, Solubility Range (maximum solubility)
[9] = pH 7.4, aqueous buffer, Max Solubility
[10] = pH 7.4, aqueous buffer, Solubility Range (maximum solubility)

MIC [1] [µg/mL]	MIC [2] [µg/mL]	MIC [3] [µg/mL]	solubility at 24 h (physchem; [5]) [µg/mL]	solubility at 24 h (physchem; [6]) [µg/mL]	solubility at 24 h (physchem; [7]) [µg/mL]	solubility at 24 h (physchem; [8]) [µg/mL]	solubility at 24 h (physchem; [9]) [µg/mL]	solubility at 24 h (physchem; [10]) [µg/mL]	Structure (SMILES)	further results
1 to 16 (≈ 2.13 to 34.1 µM)	0.25 to 1 (≈ 0.534 to 2.13 µM)	> 16							CCNC(=O)Nc1nc2cc(-c3cnc(N4CCC(C)(C(=O)O)CC4)nc3)cc(CC)c2s1 [Compound 37, 1-{5-[7-Ethyl-2-(3-ethyl-ureido)-benzothiazol-5-yl]-pyrimidin-2-yl}-4-methyl-piperidine-4-carboxylic acid]	MIC [4]: ≤ 0.25 µg/mL
> 16	1 to 16 (≈ 1.91 to 30.6 µM)	> 16							CCNC(=O)Nc1nc2cc(-c3cnc(N4CCC(C)(C(=O)O)CC4)nc3)cc(C3CCCCC3)c2s1 [Compound 39, 1-{5-[7-Cyclohexyl-2-(3-ethyl-ureido)-benzothiazol-5-yl]-pyrimidin-2-yl}-4-methyl-piperidine-4-carboxylic acid]	MIC [4]: ≤ 0.25 µg/mL
1 to 16 (≈ 1.82 to 29.2 µM)	> 16	> 16							CCNC(=O)Nc1nc2cc(-c3cnc(N4CCC(CC)(C(=O)O)CC4)nc3)cc(-c3cc(=O)[nH]cn3)c2s1 [Compound 111]	MIC [4]: 1 to 16 µg/mL (≈ 1.82 to 29.2 µM)
0.25 to 1 (≈ 0.478 to 1.91 µM)	0.25 to 1 (≈ 0.478 to 1.91 µM)	0.25 to 1 (≈ 0.478 to 1.91 µM)	400 (≈ 765 µM)	400 to 800 (≈ 765 to 1530 µM)	≥ 800	> 800			CCNC(=O)Nc1nc2cc(-c3cnc(N4CCC(C)(C(=O)O)CC4)nc3)cc(-c3noc(C)n3)c2s1 [Compound 213, 1-[5-[2-(Ethylcarbamoylamino)-7-(5-methyl-1,2,4-oxadiazol-3-yl)-1,3-benzothiazol-5-yl]pyrimidin-2-yl]-4-methyl-piperidine-4-carboxylic acid]	
0.25 to 1 (≈ 0.47 to 1.88 µM)	0.25 to 1 (≈ 0.47 to 1.88 µM)	1 to 16 (≈ 1.88 to 30.1 µM)	400 (≈ 752 µM)	400 to 800 (≈ 752 to 1500 µM)	≥ 800	> 800			CCNC(=O)Nc1nc2cc(-c3cnc(N4CCC(C)(C(=O)O)CC4)nc3C)cc(-c3ccccn3)c2s1 [Compound 214]	
0.25 to 1 (≈ 0.481 to 1.93 µM)	≤ 0.25	1 to 16 (≈ 1.93 to 30.8 µM)	400 (≈ 770 µM)	400 to 800 (≈ 770 to 1540 µM)	≥ 800	> 800			CCNC(=O)Nc1nc2cc(-c3cnc(N4CCC(C)(C(=O)O)CC4)nc3)cc(Br)c2s1 [Compound 215]	
1 to 16 (≈ 1.77 to 28.4 µM)	≤ 0.25	1 to 16 (≈ 1.77 to 28.4 µM)	25 (≈ 44.4 µM)	12.5 to 400 (≈ 22.2 to 710 µM)					CCNC(=O)Nc1nc2cc(-c3cnc(NC4COC(C)(C(=O)OCC)OC4)nc3)cc(-c3ccccn3)c2s1 (stereo not shown) [Compound 216]	solubility at 24 h (physchem; pH 4, aqueous buffer, Max Solubility): 50 µg/mL (≈ 88.7 µM); solubility at 24 h (physchem; pH 4, aqueous buffer, Solubility Range (maximum solubility)): 12.5 to 400 µg/mL (≈ 22.2 to 710 µM)
0.25 to 1 (≈ 0.384 to 1.54 µM)	≤ 0.25	1 to 16 (≈ 1.54 to 24.6 µM)	400 (≈ 615 µM)	400 to 800 (≈ 615 to 1230 µM)	≥ 800	> 800			CCNC(=O)Nc1nc2cc(-c3cnc(N4CCC(C)(C(=O)O)CC4)nc3)cc(-c3ccc(CN4CCC(F)(F)CC4)cn3)c2s1 [Compound 217]	
≤ 0.25	≤ 0.25	1 to 16 (≈ 1.83 to 29.3 µM)	200 (≈ 367 µM)	12.5 to 400 (≈ 22.9 to 733 µM)	≥ 800	> 800			CCNC(=O)Nc1nc2cc(-c3cnc(N(C)C4CCC(C)(C(=O)O)CC4)nc3)cc(-c3ccccn3)c2s1 (stereo not shown) [Compound 218]	
0.25 to 1 (≈ 0.437 to 1.75 µM)	≤ 0.25	1 to 16 (≈ 1.75 to 28 µM)	≥ 800	> 800			≥ 800	> 800	CCNC(=O)Nc1nc2cc(-c3cnc(N4CCC5(CC4)CC(CC)(C(=O)O)C5)nc3)cc(-c3ccccn3)c2s1 [Compound 219]	
≤ 0.25	≤ 0.25	1 to 16 (≈ 1.83 to 29.2 µM)	50 (≈ 91.3 µM)	12.5 to 400 (≈ 22.8 to 730 µM)	400 (≈ 730 µM)	400 to 800 (≈ 730 to 1460 µM)			CCNC(=O)Nc1nc2cc(-c3cnc(N4CCC(C)(C(=O)O)CC4)nc3OC)cc(-c3ccccn3)c2s1 [Compound 220]	
≤ 0.25	≤ 0.25	1 to 16 (≈ 1.86 to 29.8 µM)	≥ 800	> 800			≥ 800	> 800	CCNC(=O)Nc1nc2cc(-c3cnc(N4CCC(CC)(C(=O)O)CC4)s3)cc(-c3ccccn3)c2s1 [Compound 221, 4-Ethyl-1-[5-[2-(ethylcarbamoylamino)-7-(2-pyridyl)-1,3-benzothiazol-5-yl]thiazol-2-yl]piperidine-4-carboxylic acid]	
≤ 0.25	≤ 0.25	0.25 to 1 (≈ 0.47 to 1.88 µM)	≥ 800	> 800			≥ 800	> 800	CCNC(=O)Nc1nc2cc(-c3cnc(NC4CCC(C)(C(=O)O)CC4)nc3)cc(-c3ccccn3)c2s1 (stereo not shown) [Compound 222]	
					400 (≈ 741 µM)	400 to 800 (≈ 741 to 1480 µM)			CCNC(=O)Nc1nc2cc(-c3cnc(N4CCC(CC)(C(=O)O)CC4)nc3)cc(/C(CC)=N\OC)c2s1 [Compound 223, (E/Z)-4-ethyl-1-(5-(2-(3-ethylureido)-7-(1-(methoxyimino)propyl)benzo[d]thiazol-5-yl)pyrimidin-2-yl)piperidine-4-carboxylic acid]	Antibacterial Activity (MIC) S. pyogenes (ATCC 51339) ([1]; Gram positive strain): A (“A” activity ≦0.25 μg/mL); Antibacterial Activity (MIC) S. aureus (ATCC 29213) ([2]; Gram positive strain): A (“A” activity ≦0.25 μg/mL); Solubility (pH 7.4) (physchem; 24 h, pH 7.4): 100 μg/mL; Antibacterial Activity (MIC) H. influenzae (ATCC 49247) [3]: C (“C” activity >1.0 μg/mL-16 μg/mL)
≤ 0.25	≤ 0.25	1 to 16 (≈ 1.85 to 29.6 µM)	≥ 800	> 800			≥ 800	> 800	CCNC(=O)Nc1nc2cc(-c3cnc(N4CCC(CC)(C(=O)O)CC4)nc3)cc(/C(CC)=N/OC)c2s1 [Compound 224, 4-ethyl-1-[5-[2-(ethylcarbamoylamino)-7-[(E)-C-ethyl-N-methoxy-carbonimidoyl]-1,3-benzothiazol-5-yl]pyrimidin-2-yl]piperidine-4-carboxylic acid]	
≤ 0.25	≤ 0.25	0.25 to 1 (≈ 0.489 to 1.95 µM)	≥ 800	> 800			≥ 800	> 800	CCNC(=O)Nc1nc2cc(-c3cnc(N4CCC(CC)(C(=O)O)CC4)nc3)cc(/C=N\OC)c2s1 [Compound 225, 4-Ethyl-1-[5-[2-(ethylcarbamoylamino)-7-[(Z)-methoxyiminomethyl]-1,3-benzothiazol-5-yl]pyrimidin-2-yl]piperidine-4-carboxylic acid]	
≤ 0.25	≤ 0.25	0.25 to 1 (≈ 0.457 to 1.83 µM)	≥ 800	> 800			≥ 800	> 800	CCNC(=O)Nc1nc2cc(-c3cnc(N4CCC(CC)(C(=O)O)CC4)nc3)cc(-c3ncc(C)cn3)c2s1 [Compound 226]	
1 to 16 (≈ 2.04 to 32.6 µM)	1 to 16 (≈ 2.04 to 32.6 µM)	1 to 16 (≈ 2.04 to 32.6 µM)	400 (≈ 815 µM)	400 to 800 (≈ 815 to 1630 µM)			400 (≈ 815 µM)	400 to 800 (≈ 815 to 1630 µM)	CCNC(=O)Nc1nc2cc(-c3cnc(N4CCC(C)(C(=O)O)CC4)nc3)cc(-n3cccn3)n2n1 [Compound 227, 1-(5-{2-[(ethylcarbamoyl)amino]-5-(1H-pyrazol-1-yl)[1,2,4]triazolo[1,5-a]pyridin-7-yl}pyrimidin-2-yl)-4-methylpiperidine-4-carboxylic acid]	
≤ 0.25	≤ 0.25	1 to 16 (≈ 1.88 to 30 µM)	200 (≈ 375 µM)	12.5 to 400 (≈ 23.5 to 751 µM)			200 (≈ 375 µM)	12.5 to 400 (≈ 23.5 to 751 µM)	CCNC(=O)Nc1nc2cc(-c3cnc(N4CCC(CC)(C(=O)O)CC4)nc3)cc(-c3ncccn3)c2s1 [Compound 228]	
≤ 0.25	≤ 0.25	1 to 16 (≈ 1.94 to 31.1 µM)							CCNC(=O)Nc1nc2cc(-c3cnc(N4CCC(CC)(C(=O)O)CC4)nc3)cc(-c3ccccn3)c2[nH]1 [Compound 229, 4-Ethyl-1-(5-(2-(3-ethylureido)-7-(pyridin-2-yl)-1H-benzoimidazol-5-yl)pyrimidin-2-yl)piperidine-4-carboxylic acid]	solubility at 24 h (physchem; pH 7.4, aqueous buffer, Solubility (pH 7.4), pH 7.4 (PBS), 24 hours at room temperature, turbidimetric): 100 µg/mL (≈ 194 µM); solubility at 24 h (physchem; pH 7.4, aqueous buffer, Solubility Range, pH 7.4): 12.5 to 400 µg/mL (≈ 24.3 to 777 µM); solubility at 24 h (physchem; pH 9, aqueous buffer, Max Solubility, maximum of pH 4, 7.4 and 9, shown at pH 9): 200 µg/mL (≈ 389 µM); solubility at 24 h (physchem; pH 9, aqueous buffer, Solubility Range (maximum solubility), maximum of pH 4, 7.4 and 9, shown at pH 9): 12.5 to 400 µg/mL (≈ 24.3 to 777 µM)
